# What was measured:
# Assay in all cases: cell-based
# hNav1.3 = hNav1.3 (Homo sapiens, UniProt Q9NY46); conditions: IonWorks Quattro; read-out: IC50 Nav1.3
# hNav1.7 = hNav1.7 (Homo sapiens, UniProt Q15858); conditions: IonWorks Quattro; read-out: IC50 Nav1.7
# hNav1.4 = hNav1.4 (Homo sapiens, UniProt P35499); conditions: for IC50: IonWorks Quattro, read-out: IC50 Nav1.4; for Nav1.4/Nav1.7: ratio of IonWorks Quattro IC50 values
# hNav1.5 = hNav1.5 (Homo sapiens, UniProt Q14524); conditions: IonWorks Quattro; read-out: IC50 Nav1.5
# Sequence of hNav1.5 (Q14524 whole entry): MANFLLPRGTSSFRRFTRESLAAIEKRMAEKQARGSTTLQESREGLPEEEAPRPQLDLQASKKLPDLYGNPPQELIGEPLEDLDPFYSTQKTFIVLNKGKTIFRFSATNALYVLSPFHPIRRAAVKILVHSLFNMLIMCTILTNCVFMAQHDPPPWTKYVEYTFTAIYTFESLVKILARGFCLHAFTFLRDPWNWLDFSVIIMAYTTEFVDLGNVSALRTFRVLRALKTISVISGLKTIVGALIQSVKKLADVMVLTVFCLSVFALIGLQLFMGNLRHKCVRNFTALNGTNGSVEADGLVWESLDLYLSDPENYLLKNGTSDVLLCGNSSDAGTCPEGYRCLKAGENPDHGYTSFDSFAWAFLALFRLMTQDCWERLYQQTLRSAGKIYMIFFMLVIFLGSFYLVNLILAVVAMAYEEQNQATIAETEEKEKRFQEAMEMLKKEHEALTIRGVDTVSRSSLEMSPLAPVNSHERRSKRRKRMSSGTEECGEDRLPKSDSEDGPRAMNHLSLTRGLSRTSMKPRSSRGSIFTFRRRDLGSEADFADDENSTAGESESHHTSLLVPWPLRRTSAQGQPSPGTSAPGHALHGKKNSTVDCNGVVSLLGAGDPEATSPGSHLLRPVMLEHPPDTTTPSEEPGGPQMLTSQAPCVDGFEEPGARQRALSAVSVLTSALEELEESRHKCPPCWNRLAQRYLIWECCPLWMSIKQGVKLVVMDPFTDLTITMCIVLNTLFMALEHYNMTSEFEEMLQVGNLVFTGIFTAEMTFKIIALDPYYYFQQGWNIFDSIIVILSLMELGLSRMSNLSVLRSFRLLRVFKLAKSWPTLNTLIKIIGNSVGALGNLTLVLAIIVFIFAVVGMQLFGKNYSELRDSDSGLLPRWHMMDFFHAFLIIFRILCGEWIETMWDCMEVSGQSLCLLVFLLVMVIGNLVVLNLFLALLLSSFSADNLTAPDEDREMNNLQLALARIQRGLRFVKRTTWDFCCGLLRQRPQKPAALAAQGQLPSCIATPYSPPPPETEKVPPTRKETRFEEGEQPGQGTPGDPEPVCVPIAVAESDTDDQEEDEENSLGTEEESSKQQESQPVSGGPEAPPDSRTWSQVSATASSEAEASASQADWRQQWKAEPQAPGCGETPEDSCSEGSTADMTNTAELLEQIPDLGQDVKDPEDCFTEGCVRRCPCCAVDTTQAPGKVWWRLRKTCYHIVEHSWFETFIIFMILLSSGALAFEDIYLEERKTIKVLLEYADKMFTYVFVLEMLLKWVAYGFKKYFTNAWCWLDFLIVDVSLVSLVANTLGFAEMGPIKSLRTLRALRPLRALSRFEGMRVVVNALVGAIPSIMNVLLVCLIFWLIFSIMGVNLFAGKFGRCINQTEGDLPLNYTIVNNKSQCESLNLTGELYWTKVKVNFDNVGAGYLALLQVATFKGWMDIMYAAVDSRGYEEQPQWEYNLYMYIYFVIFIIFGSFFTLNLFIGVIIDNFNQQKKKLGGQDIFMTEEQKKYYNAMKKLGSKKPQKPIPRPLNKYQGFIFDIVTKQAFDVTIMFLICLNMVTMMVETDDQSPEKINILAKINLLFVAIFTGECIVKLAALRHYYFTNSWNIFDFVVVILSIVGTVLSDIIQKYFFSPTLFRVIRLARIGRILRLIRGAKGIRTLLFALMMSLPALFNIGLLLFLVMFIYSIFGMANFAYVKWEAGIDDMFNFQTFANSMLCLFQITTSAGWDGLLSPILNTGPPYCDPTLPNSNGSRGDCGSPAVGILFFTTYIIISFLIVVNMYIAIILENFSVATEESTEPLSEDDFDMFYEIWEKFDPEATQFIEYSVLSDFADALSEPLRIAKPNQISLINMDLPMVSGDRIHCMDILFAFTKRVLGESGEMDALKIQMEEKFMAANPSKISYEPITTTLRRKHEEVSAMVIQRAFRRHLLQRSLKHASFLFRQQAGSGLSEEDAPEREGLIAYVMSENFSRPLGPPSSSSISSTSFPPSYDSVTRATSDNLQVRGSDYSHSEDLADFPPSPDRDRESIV
# Sequence of hNav1.4 (P35499 whole entry): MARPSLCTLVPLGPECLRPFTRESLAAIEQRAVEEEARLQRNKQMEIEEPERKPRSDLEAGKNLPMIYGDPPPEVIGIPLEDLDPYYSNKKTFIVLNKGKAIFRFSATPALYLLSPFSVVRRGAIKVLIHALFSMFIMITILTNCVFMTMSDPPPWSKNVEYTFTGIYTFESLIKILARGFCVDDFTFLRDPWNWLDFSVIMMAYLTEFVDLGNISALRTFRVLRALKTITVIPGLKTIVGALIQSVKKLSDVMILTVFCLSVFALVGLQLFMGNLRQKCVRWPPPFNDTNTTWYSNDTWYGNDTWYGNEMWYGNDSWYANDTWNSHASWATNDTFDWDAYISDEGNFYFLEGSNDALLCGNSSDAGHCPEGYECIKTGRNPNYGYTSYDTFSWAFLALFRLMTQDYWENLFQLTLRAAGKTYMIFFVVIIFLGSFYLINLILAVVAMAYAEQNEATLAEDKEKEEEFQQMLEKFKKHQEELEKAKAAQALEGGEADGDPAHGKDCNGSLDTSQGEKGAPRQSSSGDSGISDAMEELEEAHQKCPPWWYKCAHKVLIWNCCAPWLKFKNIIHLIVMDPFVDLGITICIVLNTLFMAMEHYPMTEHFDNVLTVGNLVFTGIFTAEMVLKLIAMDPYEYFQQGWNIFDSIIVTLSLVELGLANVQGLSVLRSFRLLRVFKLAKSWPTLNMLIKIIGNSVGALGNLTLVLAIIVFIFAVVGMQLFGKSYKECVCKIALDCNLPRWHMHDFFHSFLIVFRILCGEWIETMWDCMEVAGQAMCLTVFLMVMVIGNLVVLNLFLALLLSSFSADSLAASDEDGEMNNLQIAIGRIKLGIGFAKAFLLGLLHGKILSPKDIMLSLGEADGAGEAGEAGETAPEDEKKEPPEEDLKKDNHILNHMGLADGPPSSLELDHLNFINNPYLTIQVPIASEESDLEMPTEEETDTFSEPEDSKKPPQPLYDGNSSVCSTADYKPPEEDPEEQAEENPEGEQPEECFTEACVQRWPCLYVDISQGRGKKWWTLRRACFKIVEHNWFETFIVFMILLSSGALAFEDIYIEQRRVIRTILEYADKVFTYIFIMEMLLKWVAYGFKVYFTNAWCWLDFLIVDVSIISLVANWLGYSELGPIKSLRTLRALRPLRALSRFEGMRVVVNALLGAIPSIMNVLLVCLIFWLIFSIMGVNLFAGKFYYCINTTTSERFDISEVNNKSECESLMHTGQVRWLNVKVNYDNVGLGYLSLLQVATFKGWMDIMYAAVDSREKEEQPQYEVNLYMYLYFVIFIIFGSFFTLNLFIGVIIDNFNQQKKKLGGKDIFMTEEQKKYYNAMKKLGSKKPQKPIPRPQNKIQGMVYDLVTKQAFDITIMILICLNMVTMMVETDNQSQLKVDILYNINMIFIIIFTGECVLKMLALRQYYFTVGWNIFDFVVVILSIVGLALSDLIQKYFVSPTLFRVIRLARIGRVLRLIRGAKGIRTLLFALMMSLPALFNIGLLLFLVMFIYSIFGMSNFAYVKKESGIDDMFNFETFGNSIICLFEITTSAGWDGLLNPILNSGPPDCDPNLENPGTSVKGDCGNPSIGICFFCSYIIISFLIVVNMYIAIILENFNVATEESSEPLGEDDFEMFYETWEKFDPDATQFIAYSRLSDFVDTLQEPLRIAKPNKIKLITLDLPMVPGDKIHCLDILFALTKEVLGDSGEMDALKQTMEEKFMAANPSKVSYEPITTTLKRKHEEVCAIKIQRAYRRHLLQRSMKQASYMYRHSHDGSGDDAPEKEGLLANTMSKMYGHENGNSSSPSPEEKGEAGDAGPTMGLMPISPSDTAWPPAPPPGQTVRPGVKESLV
Compound,IC50 (hNav1.3),IC50 (hNav1.7),IC50 (hNav1.4),IC50 (hNav1.5),Nav1.4/Nav1.7 (hNav1.4)
CC[C@H](C)[C@H](NC(=O)[C@H](Cc1ccc(O)cc1)NC(=O)[C@H](CCCCN)NC(=O)[C@H](CCCNC(=N)N)NC(=O)[C@@H]1CSSC[C@@H]2NC(=O)[C@H](C)NC(=O)[C@H](CCCNC(=N)N)NC(=O)[C@H](CCCCN)NC(=O)[C@H](CO)NC(=O)[C@H](CC(=O)O)NC(=O)[C@@H]3CSSC[C@H](NC(=O)[C@H](CCC(=O)O)NC(=O)[C@H](CC(C)C)NC(=O)CNC(=O)[C@H](CCC(=O)O)NC(=O)[C@H](CSSC[C@H](NC(=O)[C@@H](N)Cc4ccc(O)cc4)C(=O)N[C@@H](CCC(N)=O)C(=O)N[C@@H](CCCCN)C(=O)N[C@@H](Cc4c[nH]c5ccccc45)C(=O)N[C@@H](CCSC)C(=O)N[C@@H](CCCNC(N)=O)C(=O)N[C@@H]([C@@H](C)O)C(=O)N3)NC2=O)C(=O)N[C@@H](CCCCN)C(=O)N[C@@H](CC(C)C)C(=O)N[C@@H](Cc2c[nH]c3ccccc23)C(=O)N1)C(N)=O [compound 213],> 7 µM,5.8 µM,> 7 µM,> 7 µM,–
CC[C@H](C)[C@H](NC(=O)[C@H](Cc1ccc(O)cc1)NC(=O)[C@H](CCCCN)NC(=O)[C@H](CCCNC(=N)N)NC(=O)[C@@H]1CSSC[C@@H]2NC(=O)[C@H](C)NC(=O)[C@H](CCCNC(=N)N)NC(=O)[C@H](CCCCN)NC(=O)[C@H](CO)NC(=O)[C@H](CC(=O)O)NC(=O)[C@@H]3CSSC[C@H](NC(=O)[C@H](CCC(=O)O)NC(=O)[C@H](CC(C)C)NC(=O)CNC(=O)[C@H](CCC(=O)O)NC(=O)[C@H](CSSC[C@H](NC(=O)[C@@H](N)Cc4ccc(O)cc4)C(=O)N[C@@H](CCC(N)=O)C(=O)N[C@@H](CCCCN)C(=O)N[C@@H](Cc4c[nH]c5ccccc45)C(=O)N[C@@H](CCSC)C(=O)N[C@@H](CCC(=O)O)C(=O)N[C@@H]([C@@H](C)O)C(=O)N3)NC2=O)C(=O)N[C@@H](CCCCN)C(=O)N[C@@H](CC(C)C)C(=O)N[C@@H](Cc2c[nH]c3ccccc23)C(=O)N1)C(N)=O [compound 217],> 7 µM,> 7 µM,> 7 µM,> 7 µM,–
CC[C@H](C)[C@H](NC(=O)[C@H](Cc1ccc(O)cc1)NC(=O)[C@H](CCCCN)NC(=O)[C@H](CCCNC(=N)N)NC(=O)[C@@H]1CSSC[C@@H]2NC(=O)[C@H](C)NC(=O)[C@H](CCCNC(=N)N)NC(=O)[C@H](CCCCN)NC(=O)[C@H](CO)NC(=O)[C@H](CC(=O)O)NC(=O)[C@@H]3CSSC[C@H](NC(=O)[C@H](CCC(=O)O)NC(=O)[C@H](CC(C)C)NC(=O)CNC(=O)[C@H](CCC(=O)O)NC(=O)[C@H](CSSC[C@H](NC(=O)[C@@H](N)Cc4ccc(O)cc4)C(=O)N[C@@H](CCC(N)=O)C(=O)N[C@@H](CCCCN)C(=O)N[C@@H](Cc4c[nH]c5ccccc45)C(=O)N[C@@H](CCSC)C(=O)N[C@@H](Cc4c[nH]c5ccccc45)C(=O)N[C@@H]([C@@H](C)O)C(=O)N3)NC2=O)C(=O)N[C@@H](CCCCN)C(=O)N[C@@H](CC(C)C)C(=O)N[C@@H](CCCCN)C(=O)N1)C(N)=O [compound 228],> 5 µM,2.7 µM,> 5 µM,> 5 µM,–
CC[C@H](C)[C@H](NC(=O)[C@H](Cc1ccc(O)cc1)NC(=O)[C@H](CCCCN)NC(=O)[C@H](CCCNC(=N)N)NC(=O)[C@@H]1CSSC[C@@H]2NC(=O)[C@H](C)NC(=O)[C@H](CCCNC(=N)N)NC(=O)[C@H](CCCCN)NC(=O)[C@H](CO)NC(=O)[C@H](CC(=O)O)NC(=O)[C@@H]3CSSC[C@H](NC(=O)[C@H](CCC(=O)O)NC(=O)[C@H](CC(C)C)NC(=O)CNC(=O)[C@H](CCC(=O)O)NC(=O)[C@H](CSSC[C@H](NC(=O)[C@@H](N)Cc4ccc(O)cc4)C(=O)N[C@@H](CCC(N)=O)C(=O)N[C@@H](CCCCN)C(=O)N[C@@H](Cc4c[nH]c5ccccc45)C(=O)N[C@@H](CCSC)C(=O)N[C@@H](CC(N)=O)C(=O)N[C@@H]([C@@H](C)O)C(=O)N3)NC2=O)C(=O)N[C@@H](CCCCN)C(=O)N[C@@H](CC(C)C)C(=O)N[C@@H](Cc2c[nH]c3ccccc23)C(=O)N1)C(N)=O [compound 215],> 7 µM,5 µM,6.1 µM,> 7 µM,1
CC[C@H](C)[C@H](NC(=O)[C@H](CC(C)C)NC(=O)[C@H](CCCCN)NC(=O)[C@H](CCCNC(=N)N)NC(=O)[C@@H]1CSSC[C@@H]2NC(=O)[C@H](C)NC(=O)[C@H](CCCNC(=N)N)NC(=O)[C@H](CCCCN)NC(=O)[C@H](CO)NC(=O)[C@H](CC(=O)O)NC(=O)[C@@H]3CSSC[C@H](NC(=O)[C@H](CCC(=O)O)NC(=O)[C@H](CC(C)C)NC(=O)CNC(=O)[C@H](CCC(=O)O)NC(=O)[C@H](CSSC[C@H](NC(=O)[C@@H](N)Cc4ccc(O)cc4)C(=O)N[C@@H](CCC(N)=O)C(=O)N[C@@H](CCCCN)C(=O)N[C@@H](Cc4c[nH]c5ccccc45)C(=O)N[C@@H](CCSC)C(=O)N[C@@H](Cc4c[nH]c5ccccc45)C(=O)N[C@@H]([C@@H](C)O)C(=O)N3)NC2=O)C(=O)N[C@@H](CCCCN)C(=O)N[C@@H](CC(C)C)C(=O)N[C@@H](Cc2c[nH]c3ccccc23)C(=O)N1)C(N)=O [compound 132],> 5 µM,0.41 µM,> 5 µM,6.7 µM,12
CC[C@H](C)[C@H](NC(=O)[C@H](Cc1ccc(O)cc1)NC(=O)[C@H](CCCCN)NC(=O)[C@H](CCCNC(=N)N)NC(=O)[C@@H]1CSSC[C@@H]2NC(=O)[C@H](C)NC(=O)[C@H](CCCNC(=N)N)NC(=O)[C@H](CCCCN)NC(=O)[C@H](CO)NC(=O)[C@H](CC(=O)O)NC(=O)[C@@H]3CSSC[C@H](NC(=O)[C@H](CCC(=O)O)NC(=O)[C@H](CC(C)C)NC(=O)CNC(=O)[C@H](CCC(=O)O)NC(=O)[C@H](CSSC[C@H](NC(=O)[C@@H](N)Cc4ccc(O)cc4)C(=O)N[C@@H](CCC(N)=O)C(=O)N[C@@H](CCCCN)C(=O)N[C@@H](CC(C)C)C(=O)N[C@@H](CCSC)C(=O)N[C@@H](Cc4c[nH]c5ccccc45)C(=O)N[C@@H]([C@@H](C)O)C(=O)N3)NC2=O)C(=O)N[C@@H](CCCCN)C(=O)N[C@@H](CC(C)C)C(=O)N[C@@H](Cc2c[nH]c3ccccc23)C(=O)N1)C(N)=O [compound 196],> 5 µM,> 5 µM,> 5 µM,> 5 µM,–
CC[C@H](C)[C@H](NC(=O)[C@H](Cc1ccc(O)cc1)NC(=O)[C@H](CCCCN)NC(=O)[C@H](CCCNC(=N)N)NC(=O)[C@@H]1CSSC[C@@H]2NC(=O)[C@H](C)NC(=O)[C@H](CCCNC(=N)N)NC(=O)[C@H](CCCCN)NC(=O)[C@H](CO)NC(=O)[C@H](CC(=O)O)NC(=O)[C@@H]3CSSC[C@H](NC(=O)[C@H](CCC(=O)O)NC(=O)[C@H](CC(C)C)NC(=O)CNC(=O)[C@H](CCC(=O)O)NC(=O)[C@H](CSSC[C@H](NC(=O)[C@@H](N)Cc4ccc(O)cc4)C(=O)N[C@@H](CCC(N)=O)C(=O)N[C@@H](CCCCN)C(=O)N[C@@H](Cc4c[nH]c5ccccc45)C(=O)N[C@@H](CCSC)C(=O)N[C@@H](Cc4c[nH]c5ccccc45)C(=O)N[C@@H]([C@@H](C)O)C(=O)N3)NC2=O)C(=O)N[C@@H](CCCCN)C(=O)N[C@@H](CC(C)C)C(=O)N[C@@H](C(C)C)C(=O)N1)C(N)=O [compound 223],> 5 µM,> 5 µM,> 5 µM,> 5 µM,–

# From patent publication US9636418B2 (priority 2013, dated 2017)
